Test results from the METLIN SMRT retention time set (Domingo-Almenara et al. 2019).

experiment: gradient 5% acetonitrile 3 min, to 50% in 2 min, to 85% in 15 min, held 3 min, 100 µL/min; conditions: column: Zorbax Extend-C18 2.1 x 50 mm; eluents: water / acetonitrile, 0.1% formic acid
Summary of the method: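 Data were gathered over 3 months by HPLC coupled to a quadrupole time-of-flight mass spectrometer, operated in positive and negative ionization mode. Mixtures of ~100 pure standards ran on a Zorbax Extend-C18 column (2.1 × 50 mm, 1.8 μm) at 100 μL/min, with water and acetonitrile each containing 0.1% formic acid and dead and dwell volumes of 40 μL and 900 μL. Retention time was read from adduct peaks picked by computer and checked manually.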

Structure (SMILES)	RP-LC retention time
O=C(Cn1cccc1-c1nc(-c2ccc3c(c2)OCO3)no1)Nc1ccccc1Cl	1100 s
CC(C)NC(=O)c1cccc2c1CCN2C(=O)C1CC1	700 s
O=C(Cn1cnc2nc(N3CCCC3)ncc2c1=O)Nc1ccc(Cl)cc1C(F)(F)F	782 s
COCc1noc([C@@H]2CC(F)(F)CN2C(=O)c2occc2C)n1	788 s
Cc1nc(-c2cccnc2)nc2c1CCC(=O)N2Cc1ccccc1	766 s
O=[N+]([O-])/C=C/c1cc2ccccc2[nH]1	718 s
COCCN1C(=O)c2ccccc2C(C(=O)NCc2cccc(F)c2)C12CCCC2 (stereo not given)	866 s
CCn1cc(C(=O)Nc2ccc(Cl)cc2)c2cccnc21	931 s
O=c1n(Cc2ccc(F)cc2Cl)nc2ccc(S(=O)(=O)N3CCCC3)cn12	922 s
O=C(Nc1ccccc1C(F)(F)F)NC1CCN(c2ccccc2)C1=O (stereo not given)	841 s
O=C(NCC1CN(CC2CC2)CC12CCCCC2)Nc1cccc(Cl)c1 (stereo not given)	741 s
COc1ccc(-c2nc(NCc3ccco3)ncc2C(=O)O)cc1	781 s
COc1ccccc1-c1nc(Cn2nnc(-c3nc(-c4ccc(SC)cc4)no3)c2C)c(C)o1	1180 s
Cc1ccc(CNC(=O)CN2C(=O)C3CCCCN3c3ccc(S(=O)(=O)N4CCCC4)cc32)o1 (stereo not given)	905 s
CCOC(=O)c1ccc(OCCC2CCN(c3ccc(C)nn3)CC2)cc1	837 s
CCCCn1c(=O)c2c(nc3n2CCN3c2ccc(OC)cc2)n(C)c1=O	939 s
O=c1c(Nc2ccc(F)c(Cl)c2)nc2ccncc2n1Cc1ccccc1	831 s
CCNC(=O)C1CCCN(c2nc3ncn(CC(=O)Nc4c(C)cc(C)cc4C)c(=O)c3s2)C1 (stereo not given)	715 s
COc1ccc(-c2cc3n(n2)CCCN(S(=O)(=O)c2ccc(NC(C)=O)cc2)C3)cc1	779 s
CC(=O)/C=C1\SC(CC(=O)O)C(=O)N1c1ccccc1 (stereo not given)	631 s
O=C(O)c1cccnc1NCc1cccc(F)c1	655 s
CC(C)Cn1c(=O)c(N2CCN(C(=O)Nc3ccccc3)CC2)nc2ccncc21	577 s
Cc1ccc(CNC(=O)CN2C(=O)C(Oc3ccc(F)cc3)C23CCCCC3)o1 (stereo not given)	1020 s

Structure (SMILES)	RP-LC retention time
CC(NC(=O)CCc1ccccc1)C(=O)Nc1nc2ccccc2[nH]1 (stereo not given)	654 s
O=S(=O)(Nc1cccnc1)c1cc(-c2nnc(-c3ccccc3)o2)ccc1F	744 s
COc1ccccc1NC(=O)c1cnc2c(c1)c(=O)n(C)c(=O)n2-c1ccc(C)cc1	944 s
Cc1[nH]c(=O)[nH]c(=O)c1S(=O)(=O)NC1CC2CCC1C2 (stereo not given)	658 s
CC1(C)C2CCC(CN=C(N)CSS(=O)(=O)O)C1C2 (stereo not given)	738 s
Cc1ccc(-c2ccc(N3CCCC(C(=O)NCC(C)C)C3)nn2)cc1C (stereo not given)	737 s
CCN1C(=O)COc2ccc(-c3noc(-c4ccc(F)cc4)n3)cc21	1130 s
COc1ccccc1Cc1nc(-c2cn(-c3cccc(F)c3)nn2)no1	1040 s
COc1ccc(-c2nc3cccnc3n2C2CCN(C(=O)NC3CCCC3)C2)cc1 (stereo not given)	879 s
CN1CCCCCC(O)c2cc(C(=O)NCCC3=CCCCC3)ccc21 (stereo not given)	703 s
COCC(=O)N(C1CCOCC1)C1CCN(S(=O)(=O)c2cccc(C)c2)CC1	762 s
Cc1[nH]c(C(=O)N2CCC(CC(=O)NCc3ccc4c(c3)OCO4)CC2)c(C)c1C	774 s
Cc1cc(NC(=O)c2ccc(-n3ccnc3)nn2)no1	553 s
Cc1ccc2c(Nc3ccc4c(c3)OCO4)c(-c3nc(C4CC4)no3)cnc2n1	736 s
Cc1cccc(Cn2c(CN3CCC(C(=O)NC(C)C)CC3)cc3ccccc32)c1	737 s
O=C(Nc1cccc(C(F)(F)F)c1)N1CCC(n2cnnc2C2CC2)C1 (stereo not given)	701 s
O=C(Cn1nc2n(c1=O)CCCCC2)Nc1ccc2c(c1)OCO2	655 s
O=S(=O)(Nc1ccc(F)c(F)c1)c1c[nH]c2ncccc12	739 s
Cc1cccc(C)c1NC(=O)Cn1cnc2nc(N3CCC(C(=O)NC4CC4)CC3)sc2c1=O	693 s
C=C[C@H]1CN2CCC1C[C@@H]2C(O)c1ccnc2ccccc12 (stereo not given in full)	576 s
CC1CCN(C(=O)CSc2nnc(-c3ccc(F)cc3)o2)CC1	958 s
O=C(NCc1cccnc1)C1CC(=O)N(CCc2c[nH]c3ccc(Cl)cc23)C1 (stereo not given)	613 s
CCN1CCN(CCNC(=O)C2CCN(c3nc4cccnc4s3)CC2)CC1	559 s

Structure (SMILES)	RP-LC retention time
COc1cccc(C(=O)N2CCC3(CC2)NC(=O)c2cc(F)ccc2N3C)c1	762 s
COc1cccc(-c2cc(C(=O)NCCC3=CCCCC3)n(C)n2)c1	1060 s
O=C(CN1C(=O)COc2ccccc2C1=O)c1cccc([N+](=O)[O-])c1	863 s
CC1=C(c2ccccc2)S(=O)(=O)N=C1N1CCC(NC(=O)c2ccoc2)CC1	733 s
Nc1ccc2c3c(cccc13)C(=O)NC2=O	657 s
O=C(NCCc1csc(-c2cccs2)n1)C1CCN(C(=O)c2ccccc2)CC1	740 s
CCOc1ccccc1NC(=O)Cc1csc2nc(-c3ccccc3)cn12	894 s
COc1ccc(CCNC(=O)CSc2ncnc3c2nnn3C)cc1OC	628 s
COc1ccc(C(=O)N2CCc3ccc(C(=O)NC4CCN(C)CC4)cc32)cc1	618 s
O=c1ccc(-c2ccc(F)cc2)nn1CCc1nc(-c2ccc3c(c2)OCO3)no1	933 s
CN1C(=O)CCC2(CNC(=O)c3n[nH]c(=O)c4ccccc34)CCC=C12 (stereo not given)	669 s
CN(CC1(C)CCOCC1)S(=O)(=O)c1cccc(F)c1	895 s
COc1ccc(C2C(C(=O)NCCCN3CCOCC3)CCC(=O)N2c2ccc(OC)cc2)cc1 (stereo not given)	580 s
Cc1nc2c(ccc3nc(NC(=O)c4ccccc4Br)sc32)s1	869 s
COC(=O)c1cc(S(=O)(=O)N2CCN(c3cccc(C)c3)C(C)C2)c(C)n1C (stereo not given)	1080 s
Cc1ccccc1Cc1noc(-c2nc(-c3ccccc3F)no2)n1	1180 s
CCc1cccc(C)c1NC(=O)Cn1cnc2nc(N3CCC(C(=O)NC)CC3)sc2c1=O	646 s
Oc1ccc2c3c1O[C@H]1c4oc5ccccc5c4C[C@@]4(O)C(C2)N(CC2CC2)CCC314 (stereo not given in full)	702 s
COc1ccc(-n2ccn3cc(-c4ccccc4)nc3c2=O)cc1Cl	873 s
CCOC(=O)c1cnc(Nc2nc(C)c3cc(C)cc(C)c3n2)nc1C	657 s
O=C(NCc1ccc2c(c1)OCO2)C1CCN(c2cn[nH]c(=O)c2)C1 (stereo not given)	627 s
Oc1ccc(-c2nc3ccc(Cl)cn3c2Nc2ccc3c(c2)OCCO3)cc1	748 s
O=C(NCc1ccccn1)C1CCN(c2cc(Oc3ccccc3)ncn2)CC1	577 s

Structure (SMILES)	RP-LC retention time
Cn1c(C(=O)N(Cc2ccccc2)Cc2ccccc2)cc2c(=O)n3ccccc3nc21	1040 s
O=C(Nc1ccc(Br)cc1F)N1CCC(n2cnc3cccnc32)CC1	690 s
COc1ccc(NC(=O)C2CCc3nc(N4CCOCC4)ncc3C2)cc1C(F)(F)F (stereo not given)	858 s
CN1c2ccccc2C(=O)NC12CCN(C(=O)NCc1ccc(F)cc1)CC2	724 s
CC1=C(c2ccc(C)cc2)S(=O)(=O)N=C1N1CCCN(C(=O)c2ccc(C)cc2)CC1	885 s
CN(C)C(=O)c1[nH]c2ccccc2c1N1CCCC1=O	604 s
Cn1cnc(S(=O)(=O)N2CCc3c(c(-c4nncn4Cc4ccccc4)nn3C)C2)c1	682 s
CC(=O)Nc1nsc(N2CCC(C(=O)NCc3cccs3)CC2)n1	610 s
Cc1cc(C)cc(NC(=O)NCCc2c(C)nn(C)c2C)c1	664 s
COc1ccc(N2CC(c3nc(-c4ccncc4)no3)CC2=O)cc1Cl (stereo not given)	752 s
COCc1cc(=O)n(CC(=O)Nc2cccc(Cl)c2)c(N)n1	635 s
CNC(=O)c1nc(C(=O)NCCc2ccc(OC)c(OC)c2)cs1	623 s
Cc1ccc(CNC(=O)C2CCc3sc(C(=O)N(C)C)cc3C2)cc1 (stereo not given)	692 s
Fc1cccc(-c2noc(-c3ccc(N4CCN(Cc5ccc6c(c5)OCO6)CC4)nc3)n2)c1	834 s
Cc1noc(-c2cccn2Cc2c(F)cccc2Cl)n1	1130 s
Cc1cccc(Sc2nccnc2N2CCCC(C(=O)NC3CCCCCC3)C2)c1 (stereo not given)	1230 s
Cc1oc(C2CCN(S(=O)(=O)CCc3ccccc3)CC2)nc1C(=O)N(C)C	816 s
CC(C)n1nc(CNC(=O)c2ccc(F)c(F)c2)c2ccccc21	962 s
CN(C(=O)C1=Cc2ccccc2OC=C1)c1ccccc1	1020 s
Cc1cc2c(N3CCCC(C(=O)NCc4ccc(Br)cc4)C3)nccc2s1 (stereo not given)	702 s
CCOc1ccc(-c2cc3c(=O)n(Cc4nc(-c5ccc6c(c5)OCO6)no4)ncn3n2)cc1	1100 s
